Experimental data as given in US20110172236A1, “SUBSTITUTED ARYL SULFONE DERIVATIVES AS CALCIUM CHANNEL BLOCKERS” (priority 2008, published 2011).

Each compound was assayed against T1, Human Cav2.2 channels (Homo sapiens, UniProt Q00975) (assay: Fluorescent assay for Cav2.2 channels using potassium depolarization (Assay Example 1)). Conditions: pre-incubation potassium concentration not stated.
T1 construct: expressed in transfected cells
Type: cell-based
From the text: Assay Example 1: Fluorescent Assay for Cav2.2 Channels Using Potassium Depolarization to Initiate Channel Opening.
Human Cav2.2 channels were stably expressed in KEK293 cells along with alpha2-delta and beta subunits of voltage-gated calcium channels. An inwardly rectifying potassium channel (Kir2.3) was also expressed in these cells to allow more precise control of the cell membrane potential by extracellular potassium concentration. At low bath potassium concentration, the membrane potential is relatively negative, and is depolarized as the bath potassium concentration is raised. In this way, the bath potassium concentration can be used to regulate the voltage-dependent conformations of the channels. Compounds are incubated with cells in the presence of low (4 mM) potassium or elevated (12, 25 or 30 mM) potassium to determine the affinity for compound block of resting (closed) channels at 4 mM potassium or affinity for block of open and inactivated channels at 12, 25 or 30 mM potassium. After the incubation period, Cav2.2 channel opening is triggered by addition of higher concentration of potassium (70 mM final concentration) to further depolarize the cell. The degree of state-dependent block can be estimated from the inhibitory potency of compounds after incubation in different potassium concentrations.
Calcium influx through Cav2.2 channels is determined using a calcium-sensitive fluorescent dye in combination with a fluorescent plate reader. Fluorescent changes were measured with either a VIPR (Aurora Instruments) or FLIPR (Molecular Devices) plate reader.
• 1. Seed cells in Poly-D-Lysine Coated 96- or 384-well plate and keep in a 37° C.-10% CO2 incubator overnight • 2. Remove media^1, wash cells with 0.2 ml (96-well plate) or 0.05 ml (384-well plate) Dulbecco's Phosphate Buffered Saline (D-PBS) with calcium & magnesium (Invitrogen; 14040) • 3. Add 0.1 ml (96-well plate) or 0.05 ml (384-well plate) of 4 μM fluo-4 (Molecular Probes; F-14202) and 0.02% Pluronic acid (Molecular Probes; P-3000) prepared in D-PBS with calcium & magnesium (Invitrogen; 14040) supplemented with 10 mM Glucose & 10 mM Hepes/NaOH; pH 7.4 • 4. Incubate in the dark at 25° C. for 60-70 min • 5. Remove dye^2, wash cells with 0.1 ml (96-well plate) or 0.06 ml (384-well plate) of 4, 12, 25, or 30 mM Potassium Pre-polarization Buffer. (PPB) • 6. Add 0.1 ml (96-well plate) or 0.03 ml (384-well plate) of 4, 12, 25, 30 mM PPB. with or without test compound • 7. Incubate in the dark at 25° C. for 30 min • 8. Read cell plate on VIPR instrument, Excitation=480 nm, Emission 535 nm • 9. With VIPR continuously reading, add 0.1 ml (96-well plate) or 0.03 ml (384-well plate) of Depolarization Buffer, which is 2× the final assay concentration, to the cell plate.

T1 sequence (Q00975 whole entry): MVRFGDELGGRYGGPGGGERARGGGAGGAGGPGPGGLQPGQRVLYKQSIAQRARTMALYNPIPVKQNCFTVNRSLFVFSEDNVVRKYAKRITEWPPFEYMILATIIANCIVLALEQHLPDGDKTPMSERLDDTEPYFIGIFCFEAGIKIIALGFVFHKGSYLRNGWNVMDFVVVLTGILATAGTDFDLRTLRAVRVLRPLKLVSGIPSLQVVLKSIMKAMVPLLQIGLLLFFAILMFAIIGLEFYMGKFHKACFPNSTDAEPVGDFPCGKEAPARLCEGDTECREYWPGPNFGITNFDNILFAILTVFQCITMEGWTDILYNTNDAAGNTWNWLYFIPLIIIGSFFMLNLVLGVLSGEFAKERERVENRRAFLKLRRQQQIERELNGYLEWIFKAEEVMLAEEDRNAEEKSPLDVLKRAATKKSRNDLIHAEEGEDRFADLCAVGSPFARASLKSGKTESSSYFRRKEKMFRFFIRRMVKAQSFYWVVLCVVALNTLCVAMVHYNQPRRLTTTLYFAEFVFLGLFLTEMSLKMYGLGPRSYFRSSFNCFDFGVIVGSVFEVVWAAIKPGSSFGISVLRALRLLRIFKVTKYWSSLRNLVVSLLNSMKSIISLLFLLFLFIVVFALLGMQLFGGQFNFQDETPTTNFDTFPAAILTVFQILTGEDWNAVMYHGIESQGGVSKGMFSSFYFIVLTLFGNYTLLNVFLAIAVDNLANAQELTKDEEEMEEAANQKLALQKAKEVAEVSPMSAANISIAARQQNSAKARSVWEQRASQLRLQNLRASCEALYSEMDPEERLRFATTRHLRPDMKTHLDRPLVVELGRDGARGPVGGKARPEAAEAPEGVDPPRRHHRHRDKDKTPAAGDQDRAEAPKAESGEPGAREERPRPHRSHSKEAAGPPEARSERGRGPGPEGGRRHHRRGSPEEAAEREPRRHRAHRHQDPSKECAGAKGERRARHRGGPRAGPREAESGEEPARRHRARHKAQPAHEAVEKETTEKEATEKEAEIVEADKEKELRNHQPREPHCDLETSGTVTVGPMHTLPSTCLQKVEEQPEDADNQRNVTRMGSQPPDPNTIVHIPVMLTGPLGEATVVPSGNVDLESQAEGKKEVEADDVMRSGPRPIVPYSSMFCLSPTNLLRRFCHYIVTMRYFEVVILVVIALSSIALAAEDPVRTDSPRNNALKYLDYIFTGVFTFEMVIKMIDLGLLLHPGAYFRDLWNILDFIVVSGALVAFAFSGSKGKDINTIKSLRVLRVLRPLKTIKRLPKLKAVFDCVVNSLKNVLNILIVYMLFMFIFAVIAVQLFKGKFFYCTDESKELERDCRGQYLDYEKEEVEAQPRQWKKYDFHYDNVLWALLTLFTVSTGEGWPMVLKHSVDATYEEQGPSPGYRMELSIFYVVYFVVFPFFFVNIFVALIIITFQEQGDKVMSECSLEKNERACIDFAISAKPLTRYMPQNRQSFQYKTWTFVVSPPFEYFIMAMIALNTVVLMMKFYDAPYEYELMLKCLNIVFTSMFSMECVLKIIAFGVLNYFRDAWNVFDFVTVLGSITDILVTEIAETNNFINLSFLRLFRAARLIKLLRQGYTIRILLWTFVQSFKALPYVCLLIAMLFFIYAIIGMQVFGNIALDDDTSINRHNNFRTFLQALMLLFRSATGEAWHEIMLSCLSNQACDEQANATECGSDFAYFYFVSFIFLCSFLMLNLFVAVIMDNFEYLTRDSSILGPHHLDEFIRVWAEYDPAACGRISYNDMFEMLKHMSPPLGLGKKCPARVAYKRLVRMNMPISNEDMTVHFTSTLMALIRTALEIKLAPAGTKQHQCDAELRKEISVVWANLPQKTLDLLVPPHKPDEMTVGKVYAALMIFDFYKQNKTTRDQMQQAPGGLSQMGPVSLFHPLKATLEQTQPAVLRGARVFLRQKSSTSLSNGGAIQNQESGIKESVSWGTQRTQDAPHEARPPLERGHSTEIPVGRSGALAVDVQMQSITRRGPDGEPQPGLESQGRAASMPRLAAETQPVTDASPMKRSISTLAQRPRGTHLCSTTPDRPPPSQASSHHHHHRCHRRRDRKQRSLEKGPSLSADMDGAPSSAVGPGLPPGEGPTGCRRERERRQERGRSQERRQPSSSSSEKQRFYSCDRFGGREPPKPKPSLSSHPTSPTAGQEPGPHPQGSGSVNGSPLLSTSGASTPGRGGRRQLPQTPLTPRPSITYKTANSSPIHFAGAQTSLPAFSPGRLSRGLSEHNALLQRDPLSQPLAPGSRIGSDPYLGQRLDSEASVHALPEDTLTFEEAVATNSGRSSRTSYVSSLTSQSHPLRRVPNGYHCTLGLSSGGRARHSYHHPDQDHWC

| IC50 [µM] | Compound |
| --- | --- |
| 0.79 | CC(C)(C1CC(=O)N(c2ccc(C(F)(F)F)cc2)C1)S(=O)(=O)c1cccc(C(F)(F)F)c1 (stereo not drawn) |
| 0.36 | CC(C)(C1CCN(c2ccccc2)C(=O)C1)S(=O)(=O)c1cccc(C(F)(F)F)c1 (stereo not drawn) |
| 0.64 | CC(C)([C@H]1CCN(c2ccc(C(F)(F)F)cn2)C(=O)C1)S(=O)(=O)c1cccc(C(F)(F)F)c1 |
| 0.22 | CC(C)(C1CCN(Cc2ccc(F)cc2)C(=O)C1)S(=O)(=O)c1cccc(C(F)(F)F)c1 (stereo not drawn) |
| 0.28 | CC(C)([C@@H]1CCN(c2ccc(C(F)(F)F)cn2)C(=O)C1)S(=O)(=O)c1cccc(C(F)(F)F)c1 |
| 0.89 | CC(C)(C1CCC(=O)N(Cc2ccc(Cl)cc2)C1)S(=O)(=O)c1cccc(C(F)(F)F)c1 (stereo not drawn) |
